Results reported in patent US9095591B2, “Pharmaceutical composition for use in the treatment of glaucoma” (Institut National de la Sante et de la Recherche Medicale …, priority 2010, dated 2015).
“Also recorded” adds a separate entry of the source.

Legend:
[1] = system: rat model of surgically-induced glaucoma; assay: Intraocular pressure (IOP, TonoPen) in rat model of surgically-induced glaucoma (episcleral vein cauterization); type: in vivo, Brown Norway rats; conditions: for effect on IOP in control (nonglaucomatous, non-operated) eyes: subconjunctival injection; for effect on IOP in glaucomatous eyes (CXCR4 antagonist comparison): subconjunctival injections, FIG. 3
Experimental: In order to test the functionality of putative CXCR3 blocking compounds on intraocular pressure (IOP), an in vivo test is necessary. For that purpose a model of local eye hypertonia is highly relevant. The model of ocular hypertonia in rats by episcleral vein occlusion (Garcia-Valenzuela et al., 1995) as described in the figures can be used to test such molecules.
Subconjunctival injections of NBI74330 (1 μM) or vehicle were performed in glaucoma eyes and in control eyes. One single injection of NBI (A) induced a reduction in IOP during 3 days (p<0.001). Two injections of NBI (A and B) induced a decrease in IOP during 12 days (p<0.001). […] (In vivo measurements of the IOP using TonoPen).
Male 8-week-old Brown Norway rats weighing 300-400 g were housed in Jussieu animal house (UMRS968, Vision Institute, Paris, France). All experiments were conducted in accordance with the Association for Research in Vision and Ophthalmology for the Use of Animals in Ophthalmic research. Ocular integrity was checked using slit lamp biomicroscope. Surgical model of elevated IOP was induced in the right eye of each rat by cauterization of three episcleral veins after conjunctival dissection as previously reported [Bayer A U et Al., 2001 and Garcia-Valenzuela E et Al., 1995] under general anaesthesia (intra peritoneal injection of ketamine 75 mg/kg and xylazine 10 mg/kg). Left eyes underwent conjunctival dissection only as controls. After the surgery, animals were maintained for a 1-month period and monitored for IOP three times a week using a handheld tonometer (Tonopen, Medtronics, Jacksonville, Fla.) without sedation. 30 animals presenting a stable elevated IOP were included and randomly divided in three equal groups: in both eyes, 10 rats received one subconjunctival injection of NBI74330 (1 μM, 100 μl), […], and 10 rats received a vehicle injection (PBS, 100 μl). IOP was monitored every two days by one independent person i.e. who was blind of the treatment. At the end of the experiments, animals were euthanized and the eyes were immediately conditioned for IHC.

[2] = system: rat model of surgically-induced glaucoma; assay: Aqueous humor outflow by in vivo fluorophotometry in rat glaucoma model; set-up: species or system Brown Norway rats; conditions: glaucomatous eyes vs vehicle-treated; 1 μM, 100 μL, two subconjunctival injections
Experimental: (§1) Aqueous humor outflow was measured by in vivo fluorophotometry (FIG. 4A) and the trabecular aqueous outflow evaluated by fluorescent microsphere injection and ex vivo confocal imaging of TMs (data not shown). […] In parallel, rat TM tissues were assessed for cellularity and apoptosis by immunohistofluorescence and TUNEL-labeling.

retinal ganglion cells = assay: Apoptosis of Schlemm cells, retinal cells and retinal ganglion cells by TUNEL-labeling in rat glaucoma model; type: in vivo, Brown Norway rats
Description: (§2) Eyes were conditioned into cryosections and assessed for apoptosis using TUNEL-labeling. TM was identified in each cryosections as a pigmented slim tissue on the posterior sclera-cornea beside the iris root and just above the endothelial Schlemm's canals.
Moreover, NBI-related reduction in IOP was associated with a decrease in retinal ganglion cell apoptosis as assessed by TUNEL-labeling (4.01±0.86, 11.11±3.62, and 5.73±1.15 apoptotic retinal ganglion cells/mm for control eyes, untreated glaucomatous eyes, and NBI-treated glaucomatous eyes, respectively; P<0.05 between each group).

trabecular cells = assay: Trabecular cell apoptosis by TUNEL-labeling in rat glaucoma model; type: in vivo, Brown Norway rats; conditions: glaucoma eyes treated vs untreated
Experimental: as §2
Investigations were conducted in order to study mechanisms involved in the NBI-74330-related decrease in IOP. Aqueous humor outflow was measured by in vivo fluorophotometry (FIG. 4A) and the trabecular aqueous outflow evaluated by fluorescent microsphere injection and ex vivo confocal imaging of TMs (data not shown). […] This decrease in trabecular outflow facility is similar to what is observed during hypertensive POAG in humans. […] In parallel, rat TM tissues were assessed for cellularity and apoptosis by immunohistofluorescence and TUNEL-labeling.

trabecular meshwork = assay: Trabecular percent effective filtration length (fluorescent microsphere injection, ex vivo confocal imaging of TMs); type: in vivo, Brown Norway rats; conditions: glaucomatous eyes; 1 μM, 100 μL, two subconjunctival injections
Experimental: as §1

[3] = glaucoma eyes treated vs untreated

Row | Structure (SMILES) | effect on IOP in control (nonglaucomatous, non-operated) eyes [1] | effect on IOP in control (nonglaucomatous, non-operated) eyes ([1]; listed as NBI-74330) | duration of reduction in IOP ([1]; glaucoma eyes, one single subconjunctival injection, 1 μM, p<0.001) [days] | IOP after a second injection ([1]; glaucoma eyes, second subconjunctival injection 4 days after the first one) | time course of IOP lowering after a single injection ([1]; glaucoma eyes, single subconjunctival injection 1 μM, 100 μl) | duration of decrease in IOP ([1]; glaucoma eyes, two subconjunctival injections, 1 μM, p<0.001) [days] | dose dependence of IOP reduction ([1]; glaucomatous eyes (n=20), FIG. 2) | effect on IOP in glaucoma eyes ([1]; surgically-induced elevated IOP, subconjunctival injection 1 μM, 100 μl) | aqueous humor outflow (AHO) [2] | retinal ganglion cell apoptosis (TUNEL) (retinal ganglion cells; NBI-treated glaucomatous eyes, control eyes 4.01±0.86, untreated glaucomatous eyes 11.11±3.62, P<0.05) | TUNEL labeling of endothelial Schlemm cells (retinal ganglion cells; [3]) | TUNEL labeling of retinal cells (inner nuclear layer and ganglion cell layer) (retinal ganglion cells; [3]) | trabecular cell apoptosis (TUNEL) (trabecular cells) | trabecular cell apoptosis (TUNEL) (trabecular cells; listed as NBI-74330) | percent effective filtration length (PEFL), trabecular filtrating surface (trabecular meshwork) | effect on IOP in control (nonglaucomatous, non-operated) eyes ([1]; listed as AMD-3100) | effect on IOP in glaucomatous eyes (CXCR4 antagonist comparison) ([1]; glaucomatous eyes (n=20)) | effect on IOP in glaucomatous eyes (CXCR4 antagonist comparison) ([1]; glaucomatous eyes (n=20), listed as AMD-3100)
1 | CCOc1ccc(-n2c(C(C)N(Cc3cccnc3)C(=O)Cc3ccc(F)c(C(F)(F)F)c3)nc3ncccc3c2=O)cc1 (stereo not shown) [NBI74330] | did not influence the IOP; also recorded: had no effect on the basal IOP level | had any effect on IOP | 3 | a significantly low IOP was maintained until the end of the experiments | significant the 2nd to the 5th day after the treatment, reaching the average IOP level of control eyes | 12 | reduced the IOP in glaucomatous eyes (n=20) in a dose-dependent manner | induced an IOP lowering | AHO was improved; also recorded: aqueous humor outflow impairment was significantly reversed | 5.73±1.15 apoptotic retinal ganglion cells/mm | more TUNEL labeling in the untreated glaucoma eyes than in glaucoma eyes treated with NBI74330 | more TUNEL labeling in the untreated glaucoma eyes than in glaucoma eyes treated with NBI74330 | Apoptosis was higher in trabecular cells of untreated glaucoma eyes than in glaucoma eyes treated with NBI74330 | Trabecular apoptosis was reversed; also recorded: significantly reduced the amount of apoptotic TCs | significantly improved | – | – | –
2 | c1cc(CN2CCCNCCNCCCNCC2)ccc1CN1CCCNCCNCCCNCC1 [AMD3100] | did not affect the IOP; also recorded: had no effect on the basal IOP level | – | – | – | – | – | – | – | – | – | – | – | – | – | – | had any effect on IOP | did not affect the IOP | did not influence IOP
